In patent US20260102501A1, “ANTI-CANCER NUCLEAR HORMONE RECEPTOR-TARGETING COMPOUNDS” (Nuvation Bio Inc., priority 2022, published 2026):
Where a chain is given by its changes, count along the chain named. pIC50: −log10 of the molar value. Read-outs that look alike come from different tables or passages of the source.

Key:
[1] = target: T1, full-length androgen receptor (HEK293 cells stably expressing) (Homo sapiens, UniProt P10275); assay: AR antagonism assay (luciferase reporter)
T1 sequence (P10275 1-920): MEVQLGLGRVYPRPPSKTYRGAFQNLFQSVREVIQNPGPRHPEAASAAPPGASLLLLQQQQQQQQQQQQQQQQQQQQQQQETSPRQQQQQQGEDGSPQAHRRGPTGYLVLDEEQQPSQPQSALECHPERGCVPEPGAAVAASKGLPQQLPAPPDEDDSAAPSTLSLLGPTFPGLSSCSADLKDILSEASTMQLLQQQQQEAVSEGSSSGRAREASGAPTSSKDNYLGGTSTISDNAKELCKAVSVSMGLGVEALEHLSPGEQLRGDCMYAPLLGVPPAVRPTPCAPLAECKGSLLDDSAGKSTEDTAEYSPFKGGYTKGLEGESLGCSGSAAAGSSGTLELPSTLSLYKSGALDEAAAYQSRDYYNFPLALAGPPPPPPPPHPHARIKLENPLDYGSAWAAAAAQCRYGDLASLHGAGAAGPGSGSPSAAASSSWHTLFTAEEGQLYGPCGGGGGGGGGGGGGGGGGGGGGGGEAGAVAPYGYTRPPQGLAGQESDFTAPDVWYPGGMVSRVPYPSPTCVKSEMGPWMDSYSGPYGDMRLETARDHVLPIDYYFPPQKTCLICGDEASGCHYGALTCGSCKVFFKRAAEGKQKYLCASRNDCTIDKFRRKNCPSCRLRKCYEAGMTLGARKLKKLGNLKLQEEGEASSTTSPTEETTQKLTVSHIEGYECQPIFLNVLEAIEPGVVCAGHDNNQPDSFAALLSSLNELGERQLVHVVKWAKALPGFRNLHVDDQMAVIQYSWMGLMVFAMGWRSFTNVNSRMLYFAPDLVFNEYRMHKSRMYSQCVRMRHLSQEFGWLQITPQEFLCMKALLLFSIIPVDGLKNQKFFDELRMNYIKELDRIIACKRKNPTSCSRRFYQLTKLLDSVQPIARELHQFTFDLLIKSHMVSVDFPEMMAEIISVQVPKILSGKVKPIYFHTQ

[2] = tested on: T47D cells; assay: Cell viability assay (CellTiterGlo); type: cell-based; conditions: Homo sapiens, 144 h; for pIC50: 6 days incubation, CellTiterGlo, read-out: T47D (IC50)
[3] = target: T2, Progesterone PR-B receptors from human breast carcinoma T47D cells (Homo sapiens, UniProt P06401); assay: PR binding assay ([3H] Progesterone displacement)
T2 sequence (P06401 1-933): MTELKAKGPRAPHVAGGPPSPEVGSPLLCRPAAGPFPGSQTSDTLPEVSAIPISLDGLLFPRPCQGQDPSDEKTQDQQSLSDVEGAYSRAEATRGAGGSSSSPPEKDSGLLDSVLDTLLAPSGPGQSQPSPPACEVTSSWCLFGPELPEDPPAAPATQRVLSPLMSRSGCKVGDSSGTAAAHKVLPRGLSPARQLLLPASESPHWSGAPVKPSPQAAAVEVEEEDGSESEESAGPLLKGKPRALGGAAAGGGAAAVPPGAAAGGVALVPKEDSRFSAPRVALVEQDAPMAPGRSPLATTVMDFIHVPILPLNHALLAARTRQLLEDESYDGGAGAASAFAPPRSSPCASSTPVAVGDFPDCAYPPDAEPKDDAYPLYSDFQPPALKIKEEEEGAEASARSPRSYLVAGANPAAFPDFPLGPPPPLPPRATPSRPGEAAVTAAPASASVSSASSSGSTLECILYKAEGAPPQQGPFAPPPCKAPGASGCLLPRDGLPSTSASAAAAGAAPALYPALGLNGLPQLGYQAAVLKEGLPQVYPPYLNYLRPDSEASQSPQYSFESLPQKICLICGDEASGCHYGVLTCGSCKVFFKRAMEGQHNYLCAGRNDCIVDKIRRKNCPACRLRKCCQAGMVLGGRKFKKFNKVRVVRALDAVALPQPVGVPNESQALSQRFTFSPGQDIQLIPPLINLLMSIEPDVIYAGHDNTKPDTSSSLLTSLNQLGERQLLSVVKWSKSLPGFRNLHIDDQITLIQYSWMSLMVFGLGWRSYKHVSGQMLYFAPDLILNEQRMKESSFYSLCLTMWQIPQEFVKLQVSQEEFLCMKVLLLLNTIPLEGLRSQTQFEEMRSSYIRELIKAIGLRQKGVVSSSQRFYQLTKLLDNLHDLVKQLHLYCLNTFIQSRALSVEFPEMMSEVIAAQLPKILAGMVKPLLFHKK

[4] = target: T3, ligand binding domain of the glucocorticoid receptor (HEK293 cells stably expressing) (Homo sapiens, UniProt P04150); assay: GR antagonism assay (luciferase reporter)
T3 sequence (P04150 524-758 limits assumed): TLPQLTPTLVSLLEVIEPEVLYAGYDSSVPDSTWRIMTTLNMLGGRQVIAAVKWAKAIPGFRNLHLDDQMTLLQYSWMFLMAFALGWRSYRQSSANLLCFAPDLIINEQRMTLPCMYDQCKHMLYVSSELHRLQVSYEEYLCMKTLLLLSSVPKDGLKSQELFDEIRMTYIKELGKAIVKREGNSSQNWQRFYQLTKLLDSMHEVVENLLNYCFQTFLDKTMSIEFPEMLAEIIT

[5] = target: T4, AR (cytosol from LnCaP cells) (Homo sapiens, UniProt P10275, T878A); assay: AR binding assay (3H-R1881 displacement)
T4 sequence (P10275 1-920 T878A): T1 sequence (P10275 1-920) with T878A
Protocol: The plate was then centrifuged at 3000 rpm for 30 minutes at 4° C.

[6] = tested on: LNCap cells; assay: Cell viability assay (CellTiterGlo); type: cell-based; conditions: Homo sapiens, 144 h, 6 days incubation, CellTiterGlo, read-out: LNCap (IC50)
[7] = tested on: IEC6 cells; assay: Cell viability assay (CellTiterGlo); conditions: Rattus norvegicus, IEC-6, 144 h, read-out: IEC-6 (IC50, nM)
[8] = tested on: 22Rv1 cells; assay: Cell viability assay (CellTiterGlo); conditions: Homo sapiens, 22Rv1, 144 h, read-out: 22RV1 (IC50, nM)

CC[C@@]1(O)C(=O)OCc2c1cc1n(c2=O)Cc2cc3c(CN4CCN(CCCCCCN(C)c5ccc([C@H]6C[C@@]7(C)[C@@H](CC[C@]7(OC(C)=O)C(C)=O)[C@@H]7CCC8=CC(=O)CCC8=C76)cc5)CC4)cccc3nc2-1 [Compound 38, (8S,11R,13S,14S,17R)-17-acetyl-11-(4-((6-(4-(((S)-4-ethyl-4-hydroxy-3,14-dioxo-3,4,12,14-tetrahydro-1H-pyrano[3′,4′:6,7]indolizino[1,2-b]quinolin-10-yl)methyl)piperazin-1-yl)hexyl)(methyl)amino)phenyl)-13-methyl-3-oxo-2,3,6,7,8,11,12,13,14,15,16,17-dodecahydro-1H-cyclopenta[a]phenanthren-17-yl acetate]
pIC50 [1]: < 6.00
pIC50 [2]: 6.00 to 7.00
pIC50 [3]: > 8.00
pIC50 [4]: 7.00 to 8.00
pIC50 [5]: > 8.00
pIC50 [6]: 6.00 to 7.00
IC50 [7]: > 1000 nM

CC[C@@]1(O)C(=O)OCc2c1cc1n(c2=O)Cc2cc3c(CN(C)C)c(OC(=O)N4CCN(C(=O)[C@H](CCCNC(N)=O)NC(=O)[C@@H](NCCCCCCN(C)c5ccc([C@H]6C[C@@]7(C)[C@@H](CC[C@]7(OC(C)=O)C(C)=O)[C@@H]7CCC8=CC(=O)CCC8=C76)cc5)C(C)C)CC4)ccc3nc2-1 [Compound 39, (S)-10-((dimethylamino)methyl)-4-ethyl-4-hydroxy-3,14-dioxo-3,4,12,14-tetrahydro-1H-pyrano[3′,4′:6,7]indolizino[1,2-b]quinolin-9-yl 4-((S)-2-((S)-2-((6-((4-((8S,11R,13S,14S,17R)-17-acetoxy-17-acetyl-13-methyl-3-oxo-2,3,6,7,8,11,12,13,14,15,16,17-dodecahydro-1H-cyclopenta[a]phenanthren-11-yl)phenyl)(methyl)amino)hexyl)amino)-3-methylbutanamido)-5-ureidopentanoyl)piperazine-1-carboxylate]
pIC50 [1]: < 6.00
IC50 [8]: 101 to 1000 nM
IC50 ([2]; read-out: T47D (IC50, nM)): 101 to 1000 nM
pIC50 [3]: > 8.00
pIC50 [4]: 6.00 to 7.00
pIC50 [5]: 7.00 to 8.00
IC50 [7]: > 1000 nM

CC[C@@]1(O)C(=O)OCc2c1cc1n(c2=O)Cc2cc3c(CN4CCN(C(=O)OCCCCN(C)c5ccc([C@H]6C[C@@]7(C)[C@@H](CC[C@]7(OC(C)=O)C(C)=O)[C@@H]7CCC8=CC(=O)CCC8=C76)cc5)CC4)c(O)ccc3nc2-1 [Compound 41, 4-((4-((8S,11R,13S,14S,17R)-17-acetoxy-17-acetyl-13-methyl-3-oxo-2,3,6,7,8,11,12,13,14,15,16,17-dodecahydro-1H-cyclopenta[a]phenanthren-11-yl)phenyl)(methyl)amino)butyl 4-(((S)-4-ethyl-4,9-dihydroxy-3,14-dioxo-3,4,12,14-tetrahydro-1H-pyrano[3′,4′:6,7]indolizino[1,2-b]quinolin-10-yl)methyl)piperazine-1-carboxylate]
pIC50 [1]: 6.00 to 7.00
pIC50 [2]: 7.00 to 8.00
pIC50 [3]: > 8.00
pIC50 [4]: > 8.00
pIC50 [5]: 7.00 to 8.00
pIC50 [6]: 7.00 to 8.00
IC50 [7]: 101 to 1000 nM
